Results reported in patent publication US20250115600A1, “COVALENT MODIFIERS OF AKT1 AND USES THEREOF” (Terremoto Biosciences, Inc., priority 2022, published 2025).

Tests used:
Assay in all cases: Live cell target engagement (NanoBRET) in HEK293 cells
Assay type in all cases: cell-based
AKT1 E17K = AKT1 E17K (Homo sapiens (Human), UniProt P31749, E17K); conditions: for IC50: HEK293, 2 hours at 37° C.
AKT1 WT = AKT1 WT (Homo sapiens (Human), UniProt P31749); conditions: HEK293, 2 hours at 37° C.
AKT2 = AKT2 (Homo sapiens (Human), UniProt P31751); conditions: HEK293, 2 hours at 37° C.
Chain of AKT2 (P31751 whole entry): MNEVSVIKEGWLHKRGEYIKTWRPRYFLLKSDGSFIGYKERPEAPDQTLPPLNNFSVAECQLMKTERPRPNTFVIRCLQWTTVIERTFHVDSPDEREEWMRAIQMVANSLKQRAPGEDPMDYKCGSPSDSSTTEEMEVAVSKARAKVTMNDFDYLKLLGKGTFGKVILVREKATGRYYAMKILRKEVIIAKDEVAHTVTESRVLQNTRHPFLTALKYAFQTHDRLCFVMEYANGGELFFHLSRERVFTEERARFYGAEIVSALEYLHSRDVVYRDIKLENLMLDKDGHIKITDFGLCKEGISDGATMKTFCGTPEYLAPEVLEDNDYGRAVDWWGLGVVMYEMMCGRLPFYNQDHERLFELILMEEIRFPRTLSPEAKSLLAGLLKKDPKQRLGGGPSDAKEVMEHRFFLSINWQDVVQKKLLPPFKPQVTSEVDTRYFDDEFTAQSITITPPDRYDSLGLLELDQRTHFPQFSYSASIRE

Chain of AKT1 WT (P31749 whole entry): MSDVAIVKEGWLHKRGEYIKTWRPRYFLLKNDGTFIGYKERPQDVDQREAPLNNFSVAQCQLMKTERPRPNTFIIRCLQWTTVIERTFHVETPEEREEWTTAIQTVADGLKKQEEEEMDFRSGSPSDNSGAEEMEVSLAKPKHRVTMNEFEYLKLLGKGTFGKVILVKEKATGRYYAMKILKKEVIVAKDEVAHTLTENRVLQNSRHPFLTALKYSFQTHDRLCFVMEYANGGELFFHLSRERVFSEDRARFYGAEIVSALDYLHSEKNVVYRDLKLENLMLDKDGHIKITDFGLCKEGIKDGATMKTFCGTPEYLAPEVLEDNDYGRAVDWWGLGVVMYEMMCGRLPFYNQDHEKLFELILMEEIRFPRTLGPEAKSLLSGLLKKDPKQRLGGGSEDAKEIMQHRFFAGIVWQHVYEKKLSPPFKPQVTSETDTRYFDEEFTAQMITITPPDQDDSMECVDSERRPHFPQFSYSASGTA
Chain of AKT1 E17K (P31749 whole entry E17K): as the sequence (P31749 whole entry) above, with E17K counted along it

How did the “AKT1 E17K IC50: Selectivity vs AKT1 WT” value (AKT1 E17K) turn out when `Nc1ncccc1-c1nc2ccc(-c3ccncc3)nc2n1-c1ccc(CNCCc2ccc(C=O)c(O)c2)cc1` [Compound 119, 4-{2-[({4-[2-(2-aminopyridin-3-yl)-5-(pyridin-4-yl)imidazo[4,5-b]pyridin-3-yl]phenyl}methyl)amino]ethyl}-2-hydroxybenzaldehyde] was run?
The value was 2.9.

And the “AKT1 E17K IC50: Selectivity vs AKT2” value (AKT1 E17K)?
The value was 18.

What about the IC50 (AKT1 E17K) of the same molecule?
The IC50 was less than 100 nM.

What about the IC50 (AKT1 WT) of the same molecule?
Its IC50 is 100 to 500 nM.

What about the IC50 (AKT2) of the same molecule?
The IC50 was greater than 500 nM.

With `Nc1ncccc1-c1nc2ccc(-c3ccccc3)nc2n1-c1ccc(CNCCc2ccc(C=O)c(O)c2Cl)cc1` [Compound 120, 4-{2-[({4-[2-(2-aminopyridin-3-yl)-5-phenylimidazo[4,5-b]pyridin-3-yl]phenyl}methyl)amino]ethyl}-3-chloro-2-hydroxybenzaldehyde] as the molecule, how does the “AKT1 E17K IC50: Selectivity vs AKT1 WT” value (AKT1 E17K) read?
The value was 0.86.

And the “AKT1 E17K IC50: Selectivity vs AKT2” value (AKT1 E17K)?
Its value is 2.3.

What about the IC50 (AKT1 E17K) of the same molecule?
Its IC50 is less than 100 nM.

And the IC50 (AKT1 WT)?
The IC50 was less than 100 nM.

What about the IC50 (AKT2) of the same molecule?
Its IC50 is 100 to 500 nM.

How did the “AKT1 E17K IC50: Selectivity vs AKT1 WT” value (AKT1 E17K) turn out when `CC(=O)Nc1cccc(-c2ccc3nc(-c4cccnc4N)n(-c4ccc(CNCCc5ccc(C=O)c(O)c5)cc4)c3n2)c1` [Compound 121, N-{3-[2-(2-aminopyridin-3-yl)-3-[4-({[2-(4-formyl-3-hydroxyphenyl)ethyl]amino}methyl)phenyl]imidazo[4,5-b]pyridin-5-yl]phenyl}acetamide] was run?
The value was 2.

And the “AKT1 E17K IC50: Selectivity vs AKT2” value (AKT1 E17K)?
The value was 6.2.

And the IC50 (AKT1 E17K)?
Its IC50 is less than 100 nM.

What about the IC50 (AKT1 WT) of the same molecule?
The IC50 was less than 100 nM.

And the IC50 (AKT2)?
The IC50 was 100 to 500 nM.

Which “AKT1 E17K IC50: Selectivity vs AKT1 WT” value (AKT1 E17K) does the source give for `Nc1ncccc1-c1nc2ccc(-c3ccccc3)nc2n1-c1ccc(CNCCc2cc(O)c(C=O)c(F)c2)cc1` [Compound 123, 4-(2-((4-(2-(2-aminopyridin-3-yl)-5-phenyl-3H-imidazo[4,5-b]pyridin-3-yl)benzyl)amino)ethyl)-2-fluoro-6-hydroxybenzaldehyde] here?
Its value is 1.

And the “AKT1 E17K IC50: Selectivity vs AKT2” value (AKT1 E17K)?
The value was 2.2.

What about the IC50 (AKT1 E17K) of the same molecule?
Its IC50 is less than 100 nM.

And the IC50 (AKT1 WT)?
The IC50 was less than 100 nM.

And the IC50 (AKT2)?
The IC50 was 100 to 500 nM.

Which “AKT1 E17K IC50: Selectivity vs AKT1 WT” value (AKT1 E17K) does the source give for `Nc1ncccc1-c1nc2cc(-c3ccccc3)cnc2n1-c1ccc(CNCCc2ccc(C=O)c(O)c2)cc1` [Compound 124, 4-(2-((4-(2-(2-aminopyridin-3-yl)-6-phenyl-3H-imidazo[4,5-b]pyridin-3-yl)benzyl)amino)ethyl)-2-hydroxybenzaldehyde] here?
Its value is 3.1.

And the “AKT1 E17K IC50: Selectivity vs AKT2” value (AKT1 E17K)?
The value was 13.

What about the IC50 (AKT1 E17K) of the same molecule?
The IC50 was 100 to 500 nM.

And the IC50 (AKT1 WT)?
The IC50 was greater than 500 nM.

What about the IC50 (AKT2) of the same molecule?
Its IC50 is greater than 500 nM.

Which “AKT1 E17K IC50: Selectivity vs AKT1 WT” value (AKT1 E17K) does the source give for `CC(NCCc1ccc(O)c(C=O)c1)c1ccc(-n2c(-c3cccnc3N)nc3ccc(-c4ccccc4)nc32)cc1` (stereo not shown) [Compound 126, 5-(2-((1-(4-(2-(2-aminopyridin-3-yl)-5-phenyl-3H-imidazo[4,5-b]pyridin-3-yl)phenyl)ethyl)amino)ethyl)-2-hydroxybenzaldehyde] here?
Its value is 5.

And the “AKT1 E17K IC50: Selectivity vs AKT2” value (AKT1 E17K)?
Its value is 12.

What about the IC50 (AKT1 E17K) of the same molecule?
Its IC50 is less than 100 nM.

And the IC50 (AKT1 WT)?
Its IC50 is less than 100 nM.

What about the IC50 (AKT2) of the same molecule?
Its IC50 is 100 to 500 nM.

What does the source list for `CC(NCCc1ccc(C=O)c(O)c1)c1ccc(-n2c(-c3cccnc3N)nc3ccc(-c4ccccc4)nc32)cc1` (stereo not shown) [Compound 127, 4v-(2-((1-(4-(2-(2-aminopyridin-3-yl)-5-phenyl-3H-imidazo[4,5-b]pyridin-3-yl)phenyl)ethyl)amino)ethyl)-2-hydroxybenzaldehyde]?
AKT1 E17K IC50: Selectivity vs AKT1 WT (AKT1 E17K): 2.6; AKT1 E17K IC50: Selectivity vs AKT2 (AKT1 E17K): 7.7; IC50 (AKT1 E17K): < 100 nM; IC50 (AKT1 WT): < 100 nM; IC50 (AKT2): 100 to 500 nM

For `Nc1ncccc1-c1nc2ccc(-c3ccccc3)nc2n1-c1ccc(CNCCc2cc(O)c(C=O)cc2F)cc1` [Compound 128, 4-(2-((4-(2-(2-aminopyridin-3-yl)-5-phenyl-3H-imidazo[4,5-b]pyridin-3-yl)benzyl)amino)ethyl)-5-fluoro-2-hydroxybenzaldehyde], which “AKT1 E17K IC50: Selectivity vs AKT1 WT” value (AKT1 E17K) is on record?
The value was 0.15.

What about the “AKT1 E17K IC50: Selectivity vs AKT2” value (AKT1 E17K) of the same molecule?
Its value is 0.93.

What about the IC50 (AKT1 E17K) of the same molecule?
The IC50 was 100 to 500 nM.

And the IC50 (AKT1 WT)?
Its IC50 is less than 100 nM.

And the IC50 (AKT2)?
The IC50 was 100 to 500 nM.
